Patent US9598433B2, “Hepatitis C virus inhibitors” (BRISTOL-MYERS SQUIBB COMPANY, priority 2012, dated 2017)
Like-named read-outs stand apart in the source and are kept apart here.

Columns and labels:
[1] = rcm bond, 15-membered ring, Hoveyda-Grubbs II (5 mol%), DCE, 80.0 °C
[2] = from C=CCC[C@@H](C)O[C@@H](C)C(NC(=O)OC(C)(C)C)C(=O)N1C[C@H](Oc2nccc3cc(OC)ccc23)C[C@H]1C(=O)N[C@]1(C(=O)NS(=O)(=O)C2(C)CC2)C[C@H]1C=C; rcm bond; 15-membered ring; Hoveyda-Grubbs II (5 mol%); DCE; 7.2 mM; 80.0 °C; 2.0 h
[3] = tested on: HCV genotype 1a (H77 strain) replicon in HUH-7 cells; experiment: HCV replicon luciferase reporter assay, genotype 1a; format: cell-based; conditions: Hepatitis C virus, 72 h, genotype 1a replicon, 3 days incubation, read-out: LE_1a (EC50, range)
Procedure, shortened: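 Stable HUH-7 line carrying luciferase-reporter genotype 1a (H77) replicon with adaptive NS3 P1496L and NS5A S2204I mutations; 3.0×10^3 cells/well in 4% FCS, 0.5% DMSO, twenty-point 3-fold titration, 3 days at 37 °C. Renilla luminescence with 7.5 μM EnduRen; EC50 by four-parameter logistic fit; CC50 by multiplexed Cell Titer-Blue.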

[4] = tested on: HCV genotype 1b (Con1) replicon in HUH-7 cells; experiment: HCV replicon luciferase reporter assay, genotype 1b; format: cell-based; conditions: Hepatitis C virus, 72 h, genotype 1b replicon, 3 days incubation, read-out: LE_1b (EC50, range)
Procedure, shortened: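 Replication was read as Renilla luciferase signal, using 7.5 μM EnduRen substrate with a 2-h incubation at 37 °C. The signal came from a HUH-7 line constitutively expressing a luciferase-tagged 1b (Con1) replicon carrying S1179I.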

Q: With `CC[C@@H]1O[C@H](C)CC/C=C\[C@@H]2C[C@@]2(C(=O)NS(=O)(=O)C2CC2)NC(=O)[C@@H]2C[C@@H](O)CN2C(=O)[C@H]1NC(=O)OC(C)(C)C` as the compound, how does the ring closure, isolated yield ([1]; from C=CCC[C@@H](C)O[C@@H](CC)[C@H](NC(=O)OC(C)(C)C)C(=O)N1C[C@H](O)C[C@H]1C(=O)N[C@]1(C(=O)NS(=O)(=O)C2CC2)C[C@H]1C=C, 9.8 mM, 4.0 h) read?
A: 54%

Q: Which ring closure, isolated yield ([1]; from C=CCC[C@@H](C)O[C@@H](CC)[C@H](NC(=O)OC(C)(C)C)C(=O)N1C[C@H](O)C[C@H]1C(=O)N[C@]1(C(=O)NS(=O)(=O)C2(C)CC2)C[C@H]1C=C, 8.7 mM, 74.0 h, 5 steps) does the source give for `CC[C@@H]1O[C@H](C)CCC=C[C@@H]2C[C@@]2(C(=O)NS(=O)(=O)C2(C)CC2)NC(=O)[C@@H]2C[C@@H](O)CN2C(=O)[C@H]1NC(=O)OC(C)(C)C` here?
A: 10%

Q: What does the source list for `COc1ccc2c(O[C@@H]3C[C@H]4C(=O)N[C@]5(C(=O)NS(=O)(=O)C6(C)CC6)C[C@H]5/C=C\CC[C@@H](C)O[C@@H](C)[C@H](NC(=O)OC(C)(C)C)C(=O)N4C3)nccc2c1` [Compound 2001, tert-butyl ((2R,6S,7S,9R,13aS,14aR,16aS,Z)-2-((6-methoxyisoquinolin-1-yl)oxy)-7,9-dimethyl-14a-(((1-methylcyclopropyl)sulfonyl)carbamoyl)-5,16-dioxo-2,3,5,6,7,9,10,11,13a,14,14a,15,16,16a-tetradecahydro-1H-cyclopropa[i]pyrrolo[1,2-e][1,5,8]oxadiazacyclopentadecin-6-yl)carbamate]?
A: ring closure, yield after HPLC [2]: 30%; EC50 [3]: 1.01 to 5 nM; EC50 [4]: 1.01 to 5 nM

Q: Which ring closure, isolated yield ([1]; from C=CCC[C@@H](C)O[C@@H](C)[C@H](NC(=O)OC(C)(C)C)C(=O)N1C[C@H](O)C[C@H]1C(=O)N[C@]1(C(=O)NS(=O)(=O)C2(C)CC2)C[C@H]1C=C, 8.0 mM, 2.0 h) does the source give for `C[C@@H]1CC/C=C\[C@@H]2C[C@@]2(C(=O)NS(=O)(=O)C2(C)CC2)NC(=O)[C@@H]2C[C@@H](O)CN2C(=O)[C@@H](NC(=O)OC(C)(C)C)[C@H](C)O1` here?
A: 24%

Q: For `CC[C@@H]1O[C@H](C)CC/C=C\[C@@H]2C[C@@]2(C(=O)NS(=O)(=O)C2(CF)CC2)NC(=O)[C@@H]2C[C@@H](O)CN2C(=O)[C@H]1NC(=O)OC(C)(C)C`, which ring closure, isolated yield ([1]; from C=CCC[C@@H](C)O[C@@H](CC)[C@H](NC(=O)OC(C)(C)C)C(=O)N1C[C@H](O)C[C@H]1C(=O)N[C@]1(C(=O)NS(=O)(=O)C2(CF)CC2)C[C@H]1C=C, 9.2 mM, 16.0 h) is on record?
A: 22%

Q: With `CC[C@@H]1OCCC/C=C\[C@@H]2C[C@@]2(C(=O)NS(=O)(=O)C2(C)CC2)NC(=O)[C@@H]2C[C@@H](O)CN2C(=O)[C@H]1NC(=O)OC(C)(C)C` as the compound, how does the ring closure, isolated yield ([1]; from C=CCCCO[C@@H](CC)[C@H](NC(=O)OC(C)(C)C)C(=O)N1C[C@H](O)C[C@H]1C(=O)N[C@]1(C(=O)NS(=O)(=O)C2(C)CC2)C[C@H]1C=C, 7.5 mM, 74.0 h) read?
A: 22%

Q: For `CC[C@@H]1O[C@H](C)CC/C=C\[C@@H]2C[C@@]2(C(=O)NS(=O)(=O)C2(C)CC2)NC(=O)[C@@H]2C[C@@H](Oc3cc(OC)nc4cc(OC)ccc34)CN2C(=O)[C@H]1NC(=O)OC(C)(C)C(F)(F)F` [Compound 1019, 1,1,1-trifluoro-2-methylpropan-2-yl ((2R,6S,7S,9R,13aS,14aR,16aS,Z)-2-((2,7-dimethoxyquinolin-4-yl)oxy)-7-ethyl-9-methyl-14a-(((1-methylcyclopropyl)sulfonyl)carbamoyl)-5,16-dioxo-2,3,5,6,7,9,10,11,13a,14,14a,15,16,16a-tetradecahydro-1H-cyclopropa[i]pyrrolo[1,2-e][1,5,8]oxadiazacyclopentadecin-6-yl)carbamate], which EC50 [3] is on record?
A: 1.01 to 5 nM

Q: And the EC50 [4]?
A: 0.1 to 0.5 nM
